We go through 14 molecules from patent publication US10874636B2, “Application of substituted cinnamamide derivatives in preparation of anti-anxiety medication” (TASLY PHARMACEUTICAL GROUP CO., LTD., priority 2016, dated 2020).

For one assay, the system named is mice. Description: Elevated plus-maze test for mice. It is filed as in vivo, ICR male mice. The settings on record: 10 mg/kg intragastric for 1 week; in words. As for the experimental part: 247 ICR male mice aged 6-8 weeks with the weight of 18-22 g were taken and fed adaptively for 1 week. Then, these mice were evenly divided, at random, into 19 groups based on their weights. Intragastric administration was conducted once a day according to the drugs and dosages listed in Table 1, which lasted for 7 consecutive days. 20 minutes after administration on the 7th day, the elevated plus-maze test was conducted.
The elevated plus-maze (EPM) for mice were composed of two opposite open arms (50 cm×10 cm) and two opposite enclosed arms (50 cm×10 cm×40 cm), wherein upper portions of the enclosed arms were not capped, an open portion of 10 cm×10 cm was located in the middle of the maze, and the maze was 50 cm away from the ground. The test was conducted in a quite environment at a time period ranging from 13:00 to 18:00.
The open-arms entries (OE) and enclosed-arms entries, as well as the residence time in two arms, of the mice, within 5 minutes, were recorded respectively, and the percentage of the open-arms entries (OE %) and that of the open-arms time (OT %) for each group of mice with respect to the total entries into the two arms and the total residence time in the two arms therein were calculated respectively.
Analysis was conducted using SPSS 11.5 software, and data were represented by x±S, the significance of differences between groups was compared using the analysis of variance, differences were significant while P was less than 0.05.

The subject of a further assay is rats. Description: Drinking conflict experiment for rats (Vogel test). It is filed as in vivo, SD male rats. The settings on record: for Effect on water licks of the rats during the punished session compared with the solvent control groups: 5 mg/kg intragastric for 10 days, in words; for Water licks of rats during punished session: 5 mg/kg intragastric once a day for 10 days, test half an hour after final administration, 3 minutes, 0.3 mA, x±S. As for the experimental part:
230 SD male rats with the weight of 180-220 g were taken and fed adaptively for 1 week. Then, these rats were divided, at random, into 19 groups based on their weights, 12-13 rats in each group. Intragastric administration was conducted one a day according to the drugs and dosages listed in Table 2, which lasted for 10 consecutive days. Water deprivation 48 hours before the final administration, and non-punitive drinking training was conducted on the 9th day; on the 10th day, half an hour after the final intragastric administration of all the groups, the punitive experimental test was conducted.
On the first stage (non-punitive drinking training): after water deprivation for 24 hours, the rats were placed in operation boxes individually to explore thoroughly, until they found bottle mouths and began to lick water, water licks of the rats within 3 minutes under the conditions of no electric shock (the condition was set as follows: the strength of electric shock was 0 mA) were automatically recorded by counters, and rats whose water licks were less than 300 were eliminated. On the second stage (punitive experiment): the above rats which were not eliminated were placed in the operation boxes after continuing the water deprivation for 24 hours (48 hours in total). The rats could find the bottle mouths rapidly and begin to lick water, the instruments began to time automatically and imparted one electric shock (the ratio of licks to the number of electric shocks was 20:1) while the water licks reached to 20, wherein the strength of electric shocks was 0.3 mA, lasting for 2 seconds, but these rats may control the length of the time for which they were electrically shocked by keeping away from the bottle mouths. Water licks of the rats during the punished session (3 minutes) were recorded.
Observational indexes of the Vogel drinking conflict model: water licks of the rats during the punished session.

For `CC(C)CNC(=O)/C=C/c1cc(I)c2c(c1)OCO2` [II-3, 5′-iodine-3′,4′-methylenedioxy cinnamic acid isobutylamide], in the assay on mice, the “Effect on open-arms entries of the mice compared with the solvent control groups” value was “increase the open-arms entries of the mice” and the “Effect on open-arms time of the mice compared with the solvent control groups” value is on record as “prolong their open-arms time”. In the assay with rats, the “Effect on water licks of the rats during the punished session compared with the solvent control groups” value is on record as “increase water licks of the rats during the punished session” and the “Water licks of rats during punished session” value stood at 483.75 ± 59.05.

On to `CC(C)CNC(=O)/C=C/c1cc(Cl)c2c(c1)OCO2` [II-4, 5′-chlorine-3′,4′-methylenedioxy cinnamic acid isobutylamide], for which, in the assay on mice, the “Effect on open-arms entries of the mice compared with the solvent control groups” value is reported as “increase the open-arms entries of the mice” and the “Effect on open-arms time of the mice compared with the solvent control groups” value was “prolong their open-arms time”. In the assay with rats, the “Effect on water licks of the rats during the punished session compared with the solvent control groups” value is given as “increase water licks of the rats during the punished session” and the “Water licks of rats during punished session” value was 477.22 ± 66.66.

With `CC(C)CNC(=O)/C=C/c1cc2c(c(C(F)(F)F)c1)OCO2` [II-5, 5′-trifluoromethyl-3′,4′-methylenedioxy cinnamic acid isobutylamide], in the assay with mice, the “Effect on open-arms entries of the mice compared with the solvent control groups” value is on record as “increase the open-arms entries of the mice” and the “Effect on open-arms time of the mice compared with the solvent control groups” value is on record as “prolong their open-arms time”. In the assay with rats, the “Effect on water licks of the rats during the punished session compared with the solvent control groups” value was “increase water licks of the rats during the punished session” and the “Water licks of rats during punished session” value amounted to 469.11 ± 50.51.

For `O=C(/C=C/c1cc2c(c(C(F)(F)F)c1)OCO2)N1CCCCC1` [II-10, 5′-trifluoromethyl-3′,4′-methylenedioxy cinnamic acid piperidinylamide], in the assay on mice, the “Effect on open-arms entries of the mice compared with the solvent control groups” value is “increase the open-arms entries of the mice” and the “Effect on open-arms time of the mice compared with the solvent control groups” value is listed as “prolong their open-arms time”. Also, in the assay on rats, the “Effect on water licks of the rats during the punished session compared with the solvent control groups” value is “increase water licks of the rats during the punished session” and the “Water licks of rats during punished session” value was 459.75 ± 59.23.

Take `CC(C)CNC(=O)CCc1cc2c(c(C(F)(F)F)c1)OCO2` [II-11, 3-(5′-trifluoromethyl-3′,4′-methylenedioxyphenyl)-propionic acid isobutylamide]: in the assay on mice, the “Effect on open-arms entries of the mice compared with the solvent control groups” value is “increase the open-arms entries of the mice” and the “Effect on open-arms time of the mice compared with the solvent control groups” value is listed as “prolong their open-arms time”. In addition, in the assay with rats, the “Effect on water licks of the rats during the punished session compared with the solvent control groups” value is recorded as “increase water licks of the rats during the punished session” and the “Water licks of rats during punished session” value is 426.25 ± 37.29.

Turning to `CC(C)CNC(=O)c1cc2c(c(C(F)(F)F)c1)OCO2` [II-12, 5-trifluoromethyl-3′,4′-methylenedioxy benzoic acid isobutylamide], in the assay on mice, the “Effect on open-arms entries of the mice compared with the solvent control groups” value is “increase the open-arms entries of the mice” and the “Effect on open-arms time of the mice compared with the solvent control groups” value was “prolong their open-arms time”. Also, in the assay on rats, the “Effect on water licks of the rats during the punished session compared with the solvent control groups” value is “increase water licks of the rats during the punished session” and the “Water licks of rats during punished session” value is listed as 402.67 ± 50.35.

For the molecule `CN1CCN(C(=O)/C=C/CCc2cc3c(c(C(F)(F)F)c2)OCO3)CC1.Cl` [II-13, (E)-N-(4-methylpiperazinyl)-5-(5′-trifluoromethyl-3′,4′-methylenedioxyphenyl)-1-pentene amide hydrochloride], in the assay with mice, the “Effect on open-arms entries of the mice compared with the solvent control groups” value is given as “increase the open-arms entries of the mice” and the “Effect on open-arms time of the mice compared with the solvent control groups” value is given as “prolong their open-arms time”. Besides, in the assay on rats, the “Effect on water licks of the rats during the punished session compared with the solvent control groups” value is listed as “increase water licks of the rats during the punished session” and the “Water licks of rats during punished session” value stood at 393.44 ± 48.99.

Consider `CC(C)CNC(=O)/C=C/C=C/CCc1cc2c(c(C(F)(F)F)c1)OCO2` [II-14, (2E, 4E)-N-isobutyl-7-(5′-trifluoromethyl-3′,4′-methylenedioxyphenyl)-2,4-heptadiene amide], for which, in the assay on mice, the “Effect on open-arms entries of the mice compared with the solvent control groups” value is recorded as “increase the open-arms entries of the mice” and the “Effect on open-arms time of the mice compared with the solvent control groups” value is on record as “prolong their open-arms time”. In addition, in the assay on rats, the “Effect on water licks of the rats during the punished session compared with the solvent control groups” value is listed as “increase water licks of the rats during the punished session” and the “Water licks of rats during punished session” value came out at 368.00 ± 47.38.

As for `CN1CCN(C(=O)/C=C/C=C/CCc2cc3c(c(C(F)(F)F)c2)OCO3)CC1.Cl` [II-15, (2E,4E)-N-(4-methylpiperazinyl)-7-(5′-trifluoromethyl-3′,4′-methylenedioxyphenyl)-2,4-heptadiene amide hydrochloride], in the assay on mice, the “Effect on open-arms entries of the mice compared with the solvent control groups” value was “increase the open-arms entries of the mice” and the “Effect on open-arms time of the mice compared with the solvent control groups” value is given as “prolong their open-arms time”. Moreover, in the assay on rats, the “Effect on water licks of the rats during the punished session compared with the solvent control groups” value is listed as “increase water licks of the rats during the punished session” and the “Water licks of rats during punished session” value was found to be 412.25 ± 42.90.

For `COc1cc(/C=C/C(=O)NCC(C)C)cc(C(F)(F)F)c1OC` [III-2, 3′,4′-dimethoxy-5′-trifluoromethyl-cinnamic acid isobutylamide], in the assay on mice, the “Effect on open-arms entries of the mice compared with the solvent control groups” value is listed as “increase the open-arms entries of the mice” and the “Effect on open-arms time of the mice compared with the solvent control groups” value is “prolong their open-arms time”. Moreover, in the assay with rats, the “Effect on water licks of the rats during the punished session compared with the solvent control groups” value is “increase water licks of the rats during the punished session” and the “Water licks of rats during punished session” value is on record as 368.00 ± 39.59.

Turning to `COc1c(O)cc(/C=C/C(=O)NCC(C)C)cc1C(F)(F)F` [III-4, 3′-hydroxyl-4′-methoxy-5′-trifluoromethyl-cinnamic acid isobutylamide], in the assay with mice, the “Effect on open-arms entries of the mice compared with the solvent control groups” value is “increase the open-arms entries of the mice” and the “Effect on open-arms time of the mice compared with the solvent control groups” value was “prolong their open-arms time”. In addition, in the assay on rats, the “Effect on water licks of the rats during the punished session compared with the solvent control groups” value is given as “increase water licks of the rats during the punished session” and the “Water licks of rats during punished session” value was 394.22 ± 50.29.

On to `CC(C)CNC(=O)/C=C/c1cc(O)c(O)c(C(F)(F)F)c1` [III-7, 3′,4′-dihydroxyl-5′-trifluoromethyl-cinnamic acid isobutylamide], for which, in the assay on mice, the “Effect on open-arms entries of the mice compared with the solvent control groups” value is recorded as “increase the open-arms entries of the mice” and the “Effect on open-arms time of the mice compared with the solvent control groups” value is recorded as “prolong their open-arms time”. Besides, in the assay on rats, the “Effect on water licks of the rats during the punished session compared with the solvent control groups” value was “increase water licks of the rats during the punished session” and the “Water licks of rats during punished session” value worked out at 378.33 ± 54.97.

For the molecule `O=C(/C=C/c1cc(O)c(O)c(C(F)(F)F)c1)N1CCCCC1` [III-9, 3′,4′-dihydroxyl-5′-trifluoromethyl-cinnamyl piperidine], in the assay on mice, the “Effect on open-arms entries of the mice compared with the solvent control groups” value is listed as “increase the open-arms entries of the mice” and the “Effect on open-arms time of the mice compared with the solvent control groups” value is given as “prolong their open-arms time”. Also, in the assay on rats, the “Effect on water licks of the rats during the punished session compared with the solvent control groups” value was “increase water licks of the rats during the punished session” and the “Water licks of rats during punished session” value worked out at 363.56 ± 39.70.

Consider `CC(C)CNC(=O)CCc1cc(O)c(O)c(C(F)(F)F)c1` [III-10, 3-(3′,4′-dihydroxyl-5′-trifluoromethylphenyl)-propionic acid isobutylamide], for which, in the assay with mice, the “Effect on open-arms entries of the mice compared with the solvent control groups” value is listed as “increase the open-arms entries of the mice” and the “Effect on open-arms time of the mice compared with the solvent control groups” value was “prolong their open-arms time”. In the assay with rats, the “Effect on water licks of the rats during the punished session compared with the solvent control groups” value was “increase water licks of the rats during the punished session” and the “Water licks of rats during punished session” value is recorded as 369.00 ± 44.83.
